Laboratory results reported in patent US10457687B2, “Aminoacid derivatives, a process for their preparation and pharmaceutical compositions containing them” (LES LABORATOIRES SERVIER, priority 2015, dated 2019).

Key:
Mcl-1 protein = Mcl-1 protein (Homo sapiens, UniProt Q07820); experiment: Inhibition of Mcl-1 by the fluorescence polarisation technique (Method 1 or Method 2); assay type: binding; conditions: for IC50: fluorescence polarisation, Fluorescein labelled ligand, Method 1 (not underlined) or Method 2 (underlined), read-out: IC50 (μM) Mcl-1 FP
Outline: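 Fluorescence polarisation competition of 11-point compound dilutions (5% DMSO final) against fluorescein-labelled ligand for Mcl-1. Method 1: 1 nM ligand, 5 nM protein in 10 mM HEPES, 150 mM NaCl, 0.05% Tween 20, pH 7.4; Method 2: 10 nM ligand, 10 nM protein in 20 mM Na2HPO4, 1 mM EDTA, 50 mM NaCl, pH 7.4.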

[1] = system: H929 multiple myeloma tumour line; experiment: In vitro cytotoxicity, MTT assay, 48 hours; assay type: cell-based; conditions: H929 cells, 48 hours exposure, cell viability
Method: The cytotoxicity studies were carried out on the H929 multiple myeloma tumour line.
The cells are distributed onto microplates and exposed to the test compounds for 48 hours.

[2] = partial inhibitors, @ 10 μM test compound

Chain of Mcl-1 protein (Q07820 whole entry): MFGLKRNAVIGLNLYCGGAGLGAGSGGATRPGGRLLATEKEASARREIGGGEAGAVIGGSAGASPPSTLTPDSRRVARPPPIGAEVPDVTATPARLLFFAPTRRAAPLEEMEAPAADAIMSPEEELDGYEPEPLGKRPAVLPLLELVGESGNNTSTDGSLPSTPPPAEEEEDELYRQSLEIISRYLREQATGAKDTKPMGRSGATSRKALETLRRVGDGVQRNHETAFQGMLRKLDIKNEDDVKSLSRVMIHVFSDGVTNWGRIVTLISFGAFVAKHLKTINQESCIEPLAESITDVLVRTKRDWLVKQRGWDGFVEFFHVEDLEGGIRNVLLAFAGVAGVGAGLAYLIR

Row | Compound | IC50 (Mcl-1 protein) [µM] | IC50 ([1]; Homo sapiens, NCI-H929) [µM] | further results
1 | Cc1c(-c2c(-c3ccco3)sc3ncnc(N[C@H](Cc4ccccc4C(N)=O)C(=O)O)c23)ccc(OCCN2CCN(C)CC2)c1Cl [Example 11, 2-carbamoyl-N-[5-{3-chloro-2-methyl-4-[2-(4-methylpiperazin-1-yl)ethoxy]phenyl}-6-(furan-2-yl)thieno[2,3-d]pyrimidin-4-yl]-D-phenylalanine] |  | > 3.75 | inhibition at 10 µM (Mcl-1 protein; partial inhibitors, @ 10 μM test compound, read-out: percentage fluorescence polarisation inhibition, Mcl-1 FP): 35.5%
2 | Cc1c(-c2c(-c3ccc(F)o3)sc3ncnc(N[C@H](Cc4ccccc4OCc4ccnc(OCC(F)(F)F)n4)C(=O)O)c23)ccc(OCCN2CCN(C)CC2)c1Cl [Example 25, N-[(5Ra)-5-{3-chloro-2-methyl-4-[2-(4-methylpiperazin-1-yl)ethoxy]phenyl}-6-(5-fluorofuran-2-yl)thieno[2,3-d]pyrimidin-4-yl]-2-{[2-(2,2,2-trifluoroethoxy)pyrimidin-4-yl]methoxy}-D-phenylalanine] |  |  | percentage fluorescence polarisation inhibition, Mcl-1 FP (Mcl-1 protein; [2]): 55.5% @ 10 μM; IC50 [1]: > 0.6 µM
3 | Cc1c(-c2c(-c3ccsc3)sc3ncnc(NC(Cc4ccccc4CN)C(=O)O)c23)ccc(OCCN2CCOCC2)c1Cl [Example 37, 2-(aminomethyl)-N-[(5Ra)-5-{3-chloro-2-methyl-4-[2-(morpholin-4-yl)ethoxy]phenyl}-6-(thiophen-3-yl)thieno[2,3-d]pyrimidin-4-yl]-D-phenylalanine] |  |  | percentage fluorescence polarisation inhibition, Mcl-1 FP (Mcl-1 protein; [2]): 18.7% @ 10 μM; IC50 [1]: > 3.75 µM
4 | COc1ccccc1C[C@@H](Nc1ncnc2sc(-c3ccc(F)cc3)c(-c3ccc(OCCN4CCN(C)CC4)c(Cl)c3C)c12)C(=O)O [Example 2, N-[(5Ra)-5-{3-chloro-2-methyl-4-[2-(4-methylpiperazin-1-yl)ethoxy]phenyl}-6-(4-fluorophenyl)thieno[2,3-d]pyrimidin-4-yl]-2-methoxy-D-phenylalanine] |  |  | percentage fluorescence polarisation inhibition, Mcl-1 FP (Mcl-1 protein; [2]): 56.9% @ 10 μM; IC50 [1]: > 0.6 µM
5 | CCOc1nccc(COc2ccccc2CC(Nc2ncnc3sc(-c4ccc(F)cc4)c(-c4ccc(OCCN5CCN(C)CC5)c(Cl)c4C)c23)C(=O)O)n1 [Example 4, N-[(5Sa)-5-{3-chloro-2-methyl-4-[2-(4-methylpiperazin-1-yl)ethoxy]phenyl}-6-(4-fluorophenyl)thieno[2,3-d]pyrimidin-4-yl]-2-[(2-ethoxypyrimidin-4-yl)methoxy]-D-phenylalanine] | 0.005 | 0.215 | 
6 | COc1ccccc1CC(Nc1ncnc2sc(-c3ccc(F)cc3)c(-c3ccc(OCCN4CCN(C)CC4)c(Cl)c3C)c12)C(=O)O [Example 1, N-[(5Sa)-5-{3-chloro-2-methyl-4-[2-(4-methylpiperazin-1-yl)ethoxy]phenyl}-6-(4-fluorophenyl)thieno[2,3-d]pyrimidin-4-yl]-2-methoxy-D-phenylalanine] | 0.127 | > 0.6 | 
7 | COc1ccccc1CC(Nc1ncnc2sc(-c3ccc(F)o3)c(-c3ccc(OCCN4CCN(C)CC4)c(Cl)c3C)c12)C(=O)O [Example 16, N-[(5Sa)-5-{3-chloro-2-methyl-4-[2-(4-methylpiperazin-1-yl)ethoxy]phenyl}-6-(5-fluorofuran-2-yl)thieno[2,3-d]pyrimidin-4-yl]-2-methoxy-D-phenylalanine] | 0.006 | 0.0993 | 
8 | Cc1c(-c2c(-c3ccco3)sc3ncnc(NC(Cc4ccccc4OCc4ccccn4)C(=O)O)c23)ccc(OCCN2CCN(C)CC2)c1Cl [Example 12, N-[(5Sa)-5-{3-chloro-2-methyl-4-[2-(4-methylpiperazin-1-yl)ethoxy]phenyl}-6-(furan-2-yl)thieno[2,3-d]pyrimidin-4-yl]-2-(pyridin-2-ylmethoxy)-D-phenylalanine] | 0.014 | 0.647 | 
9 | CCCCn1nccc1COc1ccccc1C[C@@H](Nc1ncnc2sc(-c3ccc(F)o3)c(-c3ccc(OCCN4CCN(C)CC4)c(Cl)c3C)c12)C(=O)O [Example 23, 2-[(1-butyl-1H-pyrazol-5-yl)methoxy]-N-[(5Ra)-5-{3-chloro-2-methyl-4-[2-(4-methylpiperazin-1-yl)ethoxy]phenyl}-6-(5-fluorofuran-2-yl)thieno[2,3-d]pyrimidin-4-yl]-D-phenylalanine] |  |  | percentage fluorescence polarisation inhibition, Mcl-1 FP (Mcl-1 protein; partial inhibitors, @ 1 μM test compound): 41.27% @ 1 μM; IC50 [1]: > 0.6 µM
10 | COc1ccccc1-c1nccc(COc2ccccc2CC(Nc2ncnc3sc(-c4ccc(F)o4)c(-c4ccc(OCCN5CCN(C)CC5)c(Cl)c4C)c23)C(=O)O)n1 [Example 27, N-[(5Sa)-5-{3-chloro-2-methyl-4-[2-(4-methylpiperazin-1-yl)ethoxy]phenyl}-6-(5-fluorofuran-2-yl)thieno[2,3-d]pyrimidin-4-yl]-2-{[2-(2-methoxyphenyl)pyrimidin-4-yl]methoxy}-D-phenylalanine] | 0.011 | 0.00209 | 
11 | Cc1c(-c2c(-c3ccsc3)sc3ncnc(N[C@H](Cc4ccccn4)C(=O)O)c23)ccc(OCCN2CCN(C)CC2)c1Cl [Example 30, N-[(5Ra)-5-{3-chloro-2-methyl-4-[2-(4-methylpiperazin-1-yl)ethoxy]phenyl}-6-(thiophen-3-yl)thieno[2,3-d]pyrimidin-4-yl]-3-pyridin-2-yl-D-alanine] |  |  | percentage fluorescence polarisation inhibition, Mcl-1 FP (Mcl-1 protein; [2]): 68.2% @ 10 μM; IC50 [1]: > 3.75 µM
12 | Cc1c(-c2c(-c3ccsc3)sc3ncnc(N[C@H](CC4CCCCC4)C(=O)O)c23)ccc(OCCN2CCN(C)CC2)c1Cl [Example 31, N-[(5Ra)-5-{3-chloro-2-methyl-4-[2-(4-methylpiperazin-1-yl)ethoxy]phenyl}-6-(thiophen-3-yl)thieno[2,3-d]pyrimidin-4-yl]-3-cyclohexyl-D-alanine] |  |  | percentage fluorescence polarisation inhibition, Mcl-1 FP (Mcl-1 protein; [2]): 16.7% @ 10 μM; IC50 [1]: > 3.75 µM
13 | Cc1c(-c2c(-c3ccc(F)o3)sc3ncnc(NC(Cc4ccccc4O)C(=O)O)c23)ccc(OCCN2CCN(C)CC2)c1Cl [Example 14, N-[(5Sa)-5-{3-chloro-2-methyl-4-[2-(4-methylpiperazin-1-yl)ethoxy]phenyl}-6-(5-fluorofuran-2-yl)thieno[2,3-d]pyrimidin-4-yl]-2-hydroxy-D-phenylalanine] | 0.038 | 0.721 | 

Further lines, with some results ahead:

Row | IC50 (Mcl-1 protein) [µM] | Compound | IC50 ([1]; Homo sapiens, NCI-H929) [µM] | further results
14 | 0.01 | CC#Cc1sc2ncnc(NC(Cc3ccccc3OCc3ccnn3CC(F)(F)F)C(=O)O)c2c1-c1ccc(OCCN2CCN(C)CC2)c(Cl)c1C [Example 42, N-[(5Sa)-5-{3-chloro-2-methyl-4-[2-(4-methylpiperazin-1-yl)ethoxy]phenyl}-6-(prop-1-yn-1-yl)thieno[2,3-d]pyrimidin-4-yl]-2-{[1-(2,2,2-trifluoroethyl)-1H-pyrazol-5-yl]methoxy}-D-phenylalanine] | 0.061 | 
15 | 0.063 | Cc1c(-c2c(-c3ccsc3)sc3ncnc(NC(Cc4ccccn4)C(=O)O)c23)ccc(OCCN2CCN(C)CC2)c1Cl [Example 29, N-[(5Sa)-5-{3-chloro-2-methyl-4-[2-(4-methylpiperazin-1-yl)ethoxy]phenyl}-6-(thiophen-3-yl)thieno[2,3-d]pyrimidin-4-yl]-3-pyridin-2-yl-D-alanine] | 2.52 | 
16 | 0.086 | Cc1c(-c2c(-c3ccsc3)sc3ncnc(NC(Cc4ccccn4)C(=O)O)c23)ccc(OCCN2CCOCC2)c1Cl [Example 36, N-[(5Sa)-5-{3-chloro-2-methyl-4-[2-(morpholin-4-yl)ethoxy]phenyl}-6-(thiophen-3-yl)thieno[2,3-d]pyrimidin-4-yl]-3-pyridin-2-yl-D-alanine] | > 7.5 | 
17 | 0.024 | CC#Cc1sc2ncnc(NC(Cc3ccccc3OCc3ccnn3CC(F)(F)F)C(=O)O)c2c1-c1ccc(OCCN(C)C)c(Cl)c1C [Example 46, N-[(5Sa)-5-{3-chloro-4-[2-(dimethylamino)ethoxy]-2-methylphenyl}-6-(prop-1-yn-1-yl)thieno[2,3-d]pyrimidin-4-yl]-2-{[1-(2,2,2-trifluoroethyl)-1H-pyrazol-5-yl]methoxy}-D-phenylalanine] | 0.166 | 
18 | 0.006 | CC#Cc1sc2ncnc(NC(Cc3ccccc3OCc3ccnc(CCOC)n3)C(=O)O)c2c1-c1ccc(OCCN2CCN(C)CC2)c(Cl)c1C [Example 41, N-[(5Sa)-5-{3-chloro-2-methyl-4-[2-(4-methylpiperazin-1-yl)ethoxy]phenyl}-6-(prop-1-yn-1-yl)thieno[2,3-d]pyrimidin-4-yl]-2-{[2-(2-methoxyethyl)pyrimidin-4-yl]methoxy}-D-phenylalanine] | 0.00738 | 
19 | 0.007 | Cc1c(-c2c(-c3ccsc3)sc3ncnc(NC(CC4CCCCC4)C(=O)O)c23)ccc(OCCN2CCN(C)CC2)c1Cl [Example 32, N-[(5Sa)-5-{3-chloro-2-methyl-4-[2-(4-methylpiperazin-1-yl)ethoxy]phenyl}-6-(thiophen-3-yl)thieno[2,3-d]pyrimidin-4-yl]-3-cyclohexyl-D-alanine] | > 3.75 | 
20 | 0.007 | CC#Cc1sc2ncnc(NC(Cc3ccccc3OCc3ccnc(OCC(F)(F)F)n3)C(=O)O)c2c1-c1ccc(OCCN(C)C)c(Cl)c1C [Example 48, N-[(5Sa)-5-{3-chloro-4-[2-(dimethylamino)ethoxy]-2-methylphenyl}-6-(prop-1-yn-1-yl)thieno[2,3-d]pyrimidin-4-yl]-2-{[2-(2,2,2-trifluoroethoxy)pyrimidin-4-yl]methoxy}-D-phenylalanine] | 0.0161 | 
21 | 0.008 | CC#Cc1sc2ncnc(NC(Cc3ccccc3OCc3ccnc(N4CCOCC4)n3)C(=O)O)c2c1-c1ccc(OCCN(C)C)c(Cl)c1C [Example 47, N-[(5Sa)-5-{3-chloro-4-[2-(dimethylamino)ethoxy]-2-methylphenyl}-6-(prop-1-yn-1-yl)thieno[2,3-d]pyrimidin-4-yl]-2-{[2-(morpholin-4-yl)pyrimidin-4-yl]methoxy}-D-phenylalanine] | 0.0839 | 
